pIC50: −log10 of the molar value.
biological target: T1, human TLR7 (Homo sapiens, UniProt Q9NYK1); test: HEK293-Blue-hTLR-7 cells assay (SEAP reporter, R848 stimulation); type: cell-based; conditions: HEK293-Blue-hTLR7 cells, R848 ligand, 20 hrs; read-out: HEK/hTLR7 IC50
T1 sequence (Q9NYK1 27-1049): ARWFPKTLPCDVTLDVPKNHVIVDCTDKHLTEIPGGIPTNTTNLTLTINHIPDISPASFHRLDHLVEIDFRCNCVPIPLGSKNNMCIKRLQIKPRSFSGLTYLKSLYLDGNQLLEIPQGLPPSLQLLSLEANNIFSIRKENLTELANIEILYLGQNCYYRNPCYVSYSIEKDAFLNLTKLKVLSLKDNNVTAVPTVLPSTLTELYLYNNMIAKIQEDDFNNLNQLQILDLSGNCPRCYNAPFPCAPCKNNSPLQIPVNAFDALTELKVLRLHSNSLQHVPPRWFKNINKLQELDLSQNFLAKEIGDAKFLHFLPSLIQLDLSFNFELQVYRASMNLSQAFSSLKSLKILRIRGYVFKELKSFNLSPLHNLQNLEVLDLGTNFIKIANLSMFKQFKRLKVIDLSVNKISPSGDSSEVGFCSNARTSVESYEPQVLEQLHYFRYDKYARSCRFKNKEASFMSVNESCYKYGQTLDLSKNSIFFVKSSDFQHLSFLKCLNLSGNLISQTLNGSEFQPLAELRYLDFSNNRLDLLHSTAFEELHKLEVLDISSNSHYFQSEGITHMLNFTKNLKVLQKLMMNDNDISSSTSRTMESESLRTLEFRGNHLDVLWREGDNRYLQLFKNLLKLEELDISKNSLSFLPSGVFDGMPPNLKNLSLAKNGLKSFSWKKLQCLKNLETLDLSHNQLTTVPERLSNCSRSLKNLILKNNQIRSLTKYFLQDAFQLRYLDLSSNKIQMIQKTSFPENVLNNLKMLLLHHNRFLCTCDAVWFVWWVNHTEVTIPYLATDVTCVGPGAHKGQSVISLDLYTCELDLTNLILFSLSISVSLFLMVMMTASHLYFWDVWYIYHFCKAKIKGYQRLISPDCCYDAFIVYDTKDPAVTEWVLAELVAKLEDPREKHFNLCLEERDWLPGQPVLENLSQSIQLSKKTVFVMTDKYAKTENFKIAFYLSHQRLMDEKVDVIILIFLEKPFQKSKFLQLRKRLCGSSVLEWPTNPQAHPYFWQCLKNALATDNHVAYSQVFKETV
Experimental: The following tests were carried out in order to determine the activity of the compounds of formula (I), (Ia) or (Ib) in HEK293-Blue-hTLR-7/8/9 cells assay.
HEK293-Blue-hTLR-7 Cells Assay:
A stable HEK293-Blue-hTLR-7 cell line was purchased from InvivoGen (Cat. #: hkb-htlr7, San Diego, California, USA). These cells were originally designed for studying the stimulation of human TLR7 by monitoring the activation of NF-κB. A SEAP (secreted embryonic alkaline phosphatase) reporter gene was placed under the control of the IFN-β minimal promoter fused to five NF-κB and AP-1-binding sites. The SEAP was induced by activating NF-κB and AP-1 via stimulating HEK-Blue hTLR7 cells with TLR7 ligands. Therefore the reporter expression was declined by TLR7 antagonist under the stimulation of a ligand, such as R848 (Resiquimod), for incubation of 20 hrs. The cell culture supernatant SEAP reporter activity was determined using QUANTI-Blue™ kit (Cat. #: rep-qb1, Invivogen, San Diego, Ca., USA) at a wavelength of 640 nm, a detection medium that turns purple or blue in the presence of alkaline phosphatase.
HEK293-Blue-hTLR7 cells were incubated at a density of 250,000-450,000 cells/mL in a volume of 170 μL in a 96-well plate in Dulbecco's Modified Eagle's medium (DMEM) containing 4.5 g/L glucose, 50 U/mL penicillin, […], […], 2 mM L-glutamine, 10% (v/v) heat-inactivated fetal bovine serum with addition of 20 μL test compound in a serial dilution in the presence of final DMSO at 1% and 10 μL of 20 uM R848 in above DMEM, perform incubation under 37° C. in a CO2 incubator for 20 hrs. Then 20 μL of the supernatant from each well was incubated with 180 μL Quanti-blue substrate solution at 37° C. for 2 hrs and the absorbance was read at 620655 nm using a spectrophotometer. The signaling pathway that TLR7 activation leads to downstream NF-κB activation has been widely accepted, and therefore similar reporter assay was modified for evaluating TLR7 antagonist.

SMILES | pIC50
C[C@@H]1CN(c2ccc(C#N)c3ncccc23)C[C@@H]2CCN(Cc3ncc(N4CCNCC4)cn3)CCN21 [Example 13, 5-[(4R,10aS)-4-methyl-8-[(5-piperazin-1-ylpyrimidin-2-yl)methyl]-1,3,4,6,7,9,10,10a-octahydropyrazino[1,2-d][1,4]diazepin-2-yl]quinoline-8-carbonitrile] | 7.30
CO[C@@H]1CN(c2ccc(CN3CC[C@H]4CN(c5ccc(C#N)c6ncccc56)C[C@@H](C)N4CC3)nc2)C[C@H]1N [Example 22, 5-[(4R,10aS)-8-[[5-[(3R,4R)-3-amino-4-methoxy-pyrrolidin-1-yl]-2-pyridyl]methyl]-4-methyl-1,3,4,6,7,9,10,10a-octahydropyrazino[1,2-d][1,4]diazepin-2-yl]quinoline-8-carbonitrile] | 8.31
C[C@@H]1CN(c2ccc(C#N)c3ncccc23)C[C@@H]2CCN(c3ccc(N4CCNCC4)nc3)CCN21 [Example 1, 5-[(4R,10aS)-4-methyl-8-(6-piperazin-1-yl-3-pyridyl)-1,3,4,6,7,9,10,10a-octahydropyrazino [1,2-d][1,4]diazepin-2-yl]quinoline-8-carbonitrile] | 7.05
C[C@@H]1CN(c2ccc(C#N)c3ncccc23)C[C@@H]2CCN(Cc3cnc4c(c3)CNCC4)CCN21 [Example 10, 5-[(4R,10aS)-4-methyl-8-(5,6,7,8-tetrahydro-1,6-naphthyridin-3-ylmethyl)-1,3,4,6,7,9,10,10a-octahydropyrazino[1,2-d][1,4]diazepin-2-yl]quinoline-8-carbonitrile] | 8.03
C[C@@H]1CN(c2ccc(C#N)c3ncccc23)C[C@@H]2CCN(Cc3cc4c(cn3)CNCC4)CCN21 [Example 8, 5-[(4R,10aS)-4-methyl-8-(5,6,7,8-tetrahydro-2,7-naphthyridin-3-ylmethyl)-1,3,4,6,7,9,10,10a-octahydropyrazino[1,2-d][1,4]diazepin-2-yl]quinoline-8-carbonitrile] | 7.84
C[C@@H]1CN(c2ccc(C#N)c3ncccc23)C[C@@H]2CCN(c3cnc(N4CCNCC4)nc3)CCN21 [Example 2, 5-[(4R,10aS)-4-methyl-8-(2-piperazin-1-ylpyrimidin-5-yl)-1,3,4,6,7,9,10,10a-octahydropyrazino[1,2-d][1,4]diazepin-2-yl]quinoline-8-carbonitrile] | 7.23
CO[C@@H]1CN(c2cnc(CN3CC[C@H]4CN(c5ccc(C#N)n6ncc(F)c56)C[C@@H](C)N4CC3)c(F)c2)C[C@H]1N [Example 27, 4-[(4R,10aS)-8-[[5-[(3R,4R)-3-amino-4-methoxy-pyrrolidin-1-yl]-3-fluoro-2-pyridyl]methyl]-4-methyl-1,3,4,6,7,9,10,10a-octahydropyrazino[1,2-d][1,4]diazepin-2-yl]-3-fluoro-pyrazolo[1,5-a]pyridine-7-carbonitrile] | 8.07
CO[C@@H]1CN(c2cnc(CN3CC[C@H]4CN(c5ccc(C#N)n6nccc56)C[C@@H](C)N4CC3)c(F)c2)C[C@H]1N [Example 26, 4-[(4R,10aS)-8-[[5-[(3R,4R)-3-amino-4-methoxy-pyrrolidin-1-yl]-3-fluoro-2-pyridyl]methyl]-4-methyl-1,3,4,6,7,9,10,10a-octahydropyrazino[1,2-d][1,4]diazepin-2-yl]pyrazolo[1,5-a]pyridine-7-carbonitrile] | 7.45
C[C@@H]1CN(c2ccc(C#N)c3ncccc23)C[C@@H]2CCN(c3ccc4c(n3)CNCC4)CCN21 [Example 5, 5-[(4R,10aS)-4-methyl-8-(5,6,7,8-tetrahydro-1,7-naphthyridin-2-yl)-1,3,4,6,7,9,10,10a-octahydropyrazino[1,2-d][1,4]diazepin-2-yl]quinoline-8-carbonitrile] | 7.41
C[C@@H]1CN(c2ccc(C#N)c3ncccc23)C[C@@H]2CCN(Cc3cccc(N4CCNCC4)n3)CCN21 [Example 18, 5-[(4R,10aS)-4-methyl-8-[(6-piperazin-1-yl-2-pyridyl)methyl]-1,3,4,6,7,9,10,10a-octahydropyrazino[1,2-d][1,4]diazepin-2-yl]quinoline-8-carbonitrile] | 7.92
C[C@@H]1CN(c2ccc(C#N)c3ncccc23)C[C@@H]2CCN(Cc3cc4c(cn3)CCNC4)CCN21 [Example 9, 5-[(4R,10aS)-4-methyl-8-(5,6,7,8-tetrahydro-2,6-naphthyridin-3-ylmethyl)-1,3,4,6,7,9,10,10a-octahydropyrazino[1,2-d][1,4]diazepin-2-yl]quinoline-8-carbonitrile] | 8.09
C[C@@H]1CN(c2ccc(C#N)c3ncccc23)C[C@@H]2CCN(Cc3cnc(N4CCNCC4)cn3)CCN21 [Example 15, 5-[(4R,10aS)-4-methyl-8-[(5-piperazin-1-ylpyrazin-2-yl)methyl]-1,3,4,6,7,9,10,10a-octahydropyrazino[1,2-d][1,4]diazepin-2-yl]quinoline-8-carbonitrile] | 8.66
C[C@@H]1CN(c2ccc(C#N)c3ncccc23)C[C@@H]2CCN(c3cncc4c3CCNC4)CCN21 [Example 4, 5-[(4R,10aS)-4-methyl-8-(5,6,7,8-tetrahydro-2,7-naphthyridin-4-yl)-1,3,4,6,7,9,10,10a-octahydropyrazino[1,2-d][1,4]diazepin-2-yl]quinoline-8-carbonitrile] | 7.75
CO[C@@H]1CN(c2cnc(CN3CC[C@H]4CN(c5ccc(C#N)c6ncccc56)C[C@@H](C)N4CC3)c(F)c2)C[C@H]1N [Example 24, 5-[(4R,10aS)-8-[[5-[(3R,4R)-3-amino-4-methoxy-pyrrolidin-1-yl]-3-fluoro-2-pyridyl]methyl]-4-methyl-1,3,4,6,7,9,10,10a-octahydropyrazino[1,2-d][1,4]diazepin-2-yl]quinoline-8-carbonitrile] | 8.49
C[C@@H]1CN(c2ccc(C#N)c3ncccc23)C[C@@H]2CCN(c3ccc4c(n3)CCNC4)CCN21 [Example 6, 5-[(4R,10aS)-4-methyl-8-(5,6,7,8-tetrahydro-1,6-naphthyridin-2-yl)-1,3,4,6,7,9,10,10a-octahydropyrazino[1,2-d][1,4]diazepin-2-yl]quinoline-8-carbonitrile] | 7.32
C[C@@H]1CN(c2ccc(C#N)c3ncccc23)C[C@@H]2CCN(Cc3ncc(N4CCNCC4)cc3F)CCN21 [Example 23, 5-[(4R,10aS)-8-[(3-fluoro-5-piperazin-1-yl-2-pyridyl)methyl]-4-methyl-1,3,4,6,7,9,10,10a-octahydropyrazino[1,2-d][1,4]diazepin-2-yl]quinoline-8-carbonitrile] | 8.54
C[C@@H]1CN(c2ccc(C#N)c3ncccc23)C[C@@H]2CCN(Cc3ccc4c(c3)CNCC4)CCN21 [Example 12, 5-[(4R,10aS)-4-methyl-8-(1,2,3,4-tetrahydroisoquinolin-7-ylmethyl)-1,3,4,6,7,9,10,10a-octahydropyrazino[1,2-d][1,4]diazepin-2-yl]quinoline-8-carbonitrile] | 8.35
C[C@@H]1CN(c2ccc(C#N)c3ncccc23)C[C@@H]2CCN(Cc3ccc(N4C[C@@H](N)[C@@H](F)C4)cn3)CCN21 [Example 20, 5-[(4R,10aS)-8-[[5-[(3R,4S)-3-amino-4-fluoro-pyrrolidin-1-yl]-2-pyridyl]methyl]-4-methyl-1,3,4,6,7,9,10,10a-octahydropyrazino[1,2-d][1,4]diazepin-2-yl]quinoline-8-carbonitrile] | 8.80

— patent US12421240B2, “Hydropyrazino[1,2-d][1,4]diazepine compounds for the treatment of autoimmune disease” (Hoffmann-La Roche Inc., priority 2019, dated 2025)
